Tests used:
[1] = target: T1, recombinant BACE1 protein (Homo sapiens, UniProt P56817); test: BACE1 biochemical FRET based assay - Method 1; conditions: BACE1 1 μg/ml, 120 minutes, 10 μm substrate, pH 5.0; read-out: Biochemical FRET based assay - Method 1 pIC50 (converted)
T1 construct: recombinant BACE1 protein in a final concentration of 1 μg/ml
From the text: (§1) BACE1 Biochemical FRET Based Assay
(§2) This assay is a Fluorescence Resonance Energy Transfer Assay (FRET) based assay. The substrate for this assay is an APP derived 13 amino acids peptide that contains the ‘Swedish’ Lys-Met/Asn-Leu mutation of the amyloid precursor protein (APP) beta-secretase cleavage site. This substrate also contains two fluorophores: (7-methoxycoumarin-4-yl) acetic acid (Mca) is a fluorescent donor with excitation wavelength at 320 nm and emission at 405 nm and 2,4-Dinitrophenyl (Dnp) is a proprietary quencher acceptor. […] Upon cleavage by BACE1, the fluorophore Mca is separated from the quenching group Dnp, restoring the full fluorescence yield of the donor. The increase in fluorescence is linearly related to the rate of proteolysis.
Briefly in a 384-well format recombinant BACE1 protein in a final concentration of 1 μg/ml is incubated for 120 minutes at room temperature with 10 μm substrate in incubation buffer (40 mM Citrate buffer pH 5.0, 0.04% PEG, 4% DMSO) in the absence or presence of compound. Next the amount of proteolysis is directly measured by fluorescence measurement at T=0 and T=120 (excitation at 320 nm and emission at 405 nm). Results are expressed in RFU (Relative Fluorescence Units), as difference between T120 and T0.
(§3) A best-fit curve is fitted by a minimum sum of squares method to the plot of % Controlmin versus compound concentration. From this an IC50 value (inhibitory concentration causing 50% inhibition of activity) can be obtained.

[2] = target: T2, recombinant BACE2 protein (Homo sapiens, UniProt Q9Y5Z0); test: BACE2 biochemical FRET based assay; conditions: BACE2 0.4 μg/nil, 450 minutes, 10 μM substrate, pH 5.0; read-out: Biochemical FRET based assay pIC50 (BACE2) (converted)
T2 construct: recombinant BACE2 protein in a final concentration of 0.4 μg/nil
T2 sequence (Q9Y5Z0 63-518): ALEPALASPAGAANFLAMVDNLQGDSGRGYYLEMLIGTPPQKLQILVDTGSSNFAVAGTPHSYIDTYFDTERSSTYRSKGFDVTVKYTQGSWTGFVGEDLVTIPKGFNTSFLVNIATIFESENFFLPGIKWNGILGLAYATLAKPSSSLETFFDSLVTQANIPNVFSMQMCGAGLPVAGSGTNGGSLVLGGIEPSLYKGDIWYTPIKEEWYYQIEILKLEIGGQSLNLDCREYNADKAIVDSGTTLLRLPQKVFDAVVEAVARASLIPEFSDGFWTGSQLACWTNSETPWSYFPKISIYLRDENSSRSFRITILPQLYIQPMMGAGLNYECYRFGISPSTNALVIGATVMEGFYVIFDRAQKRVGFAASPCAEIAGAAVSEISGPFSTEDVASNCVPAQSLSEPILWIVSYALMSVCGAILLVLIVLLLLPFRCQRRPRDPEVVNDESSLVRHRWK
From the text: BACE2 Biochemical FRET Based Assay
as §2, with “assay” for “assay is an APP derived 13 amino acids peptide that”, “the beta-secretase,” for “BACE1,”
Briefly in a 384-well format recombinant BACE2 protein in a final concentration of […] is incubated for 450 minutes at room temperature with 10 μM substrate in incubation buffer (50 mM Citrate buffer pH 5.0, 0.05% PEG, no DMSO) in the absence or presence of compound. Next the amount of proteolysis is directly measured by fluorescence measurement at T=0 and T=450 (excitation at 320 nm and emission at 405 nm). Results are expressed in RFU (Relative Fluorescence Units), as difference between T450 and T0.
as §3

[3] = system: Abeta total produced and secreted by SKNBE2 cells expressing hAPP695; test: Cellular αLisa assay in SKNBE2 cells - Abeta total; format: cell-based; conditions: Homo sapiens, incubated for 18 hours, read-out: Cellular αLisa assay in SKNBE2 cells Abeta total pIC50 (converted)
Experimental: (§4) Cellular αLisa Assay in SKNBE2 Cells
(§5) In two αLisa assays the levels of Abeta total and Abeta 1-42 produced and secreted into the medium of human neuroblastoma SKNBE2 cells are quantified. The assay is based on the human neuroblastoma SKNBE2 expressing the wild type Amyloid Precursor Protein (hAPP695). The compounds are diluted and added to these cells, incubated for 18 hours and then measurements of Abeta 1-42 and Abeta total are taken. Abeta total and Abeta 1-42 are measured by sandwich αLisa. αLisa is a sandwich assay using biotinylated antibody AbN/25 attached to streptavidin coated beads and antibody Ab4G8 or cAb42/26 conjugated acceptor beads for the detection of Abeta total and Abeta 1-42 respectively. In the presence of Abeta total or Abeta 1-42, the beads come into close proximity. The excitation of the donor beads provokes the release of singlet oxygen molecules that trigger a cascade of energy transfer in the acceptor beads, resulting in light emission. Light emission is measured after 1 hour incubation (excitation at […] and emission at 615 nm).
as §3

[4] = system: Abeta 1-42 produced and secreted by SKNBE2 cells expressing hAPP695; test: Cellular αLisa assay in SKNBE2 cells - Abeta 42; format: cell-based, human; conditions: Homo sapiens, incubated for 18 hours, read-out: Cellular αLisa assay in SKNBE2 cells Abeta 42 pIC50 (converted)
Experimental: as §4, §5, §3

[5] = target: T1, recombinant BACE1 protein; test: BACE1 biochemical FRET based assay - Method 2; conditions: BACE1 0.04 μg/ml, 450 minutes, 20 μM substrate, pH 5.0; read-out: Biochemical FRET based assay- Method 2 pIC50 (converted)
From the text: as §1, §2
Briefly in a 384-well format recombinant BACE1 protein in a final concentration of 0.04 μg/ml is incubated for 450 minutes at room temperature with 20 μM substrate in incubation buffer (50 mM Citrate buffer pH 5.0, 0.05% PEG) in the presence of compound or DMSO. Next the amount of proteolysis is directly measured by fluorescence measurement (excitation at 320 nm and emission at 405 nm) at different incubation times (0, 30, 60, 90, 120 and 450 min). For every experiment a time curve (every 30 min between 0 min and 120 min) is used to determine the time where we find the lowest basal signal of the high control. The signal at this time (Tx) is used to subtract from the signal at 450 min. Results are expressed in RFU, as difference between T450 and Tx.
as §3

T1 sequence (P56817 46-501): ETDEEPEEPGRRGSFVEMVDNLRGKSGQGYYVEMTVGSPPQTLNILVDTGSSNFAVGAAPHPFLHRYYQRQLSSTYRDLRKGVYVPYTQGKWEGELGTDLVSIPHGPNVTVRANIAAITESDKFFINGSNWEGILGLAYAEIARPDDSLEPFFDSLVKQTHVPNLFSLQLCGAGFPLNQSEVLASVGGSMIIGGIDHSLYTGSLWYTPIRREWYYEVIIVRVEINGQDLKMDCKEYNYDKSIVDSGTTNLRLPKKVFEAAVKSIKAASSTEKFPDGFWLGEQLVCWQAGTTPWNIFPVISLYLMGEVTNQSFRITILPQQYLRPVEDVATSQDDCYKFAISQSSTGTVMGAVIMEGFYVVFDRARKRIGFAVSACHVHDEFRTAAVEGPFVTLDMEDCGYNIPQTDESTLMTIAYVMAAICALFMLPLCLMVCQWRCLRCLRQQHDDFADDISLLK

Row | Structure (SMILES) | IC50 [1] [µM] | IC50 [2] [µM] | IC50 [3] [µM] | IC50 [4] [µM] | IC50 [5] [µM]
1 | C[C@@]1(c2cc(NC(=O)c3ccc(Cl)cn3)ccc2F)C[C@@H](C(F)(F)F)CC(N)=N1 [Compound 11] | 0.0309 | 0.00407 | 0.002 | 0.00234 | 0.00263
2 | C[C@@]1(c2cccc(NC(=O)c3ccc(C#N)cn3)c2)C[C@H](C(F)(F)F)CC(N)=N1 [Compound 8, N-[3-[(2S,4S)-6-amino-2-methyl-4-(trifluoromethyl)-4,5-dihydro-3H-pyridin-2-yl]phenyl]-5-cyano-pyridine-2-carboxamide] | 9.77 | > 10 | 2.51 | 2.29 | 6.76
3 | C[C@@]1(c2cccc(NC(=O)c3ncc(Cl)cc3F)c2)C[C@@H](C(F)(F)F)CC(N)=N1 [Compound 5, N-[3-[(2S,4R)-6-amino-2-methyl-4-(trifluoromethyl)-4,5-dihydro-3H-pyridin-2-yl]phenyl]-5-chloro-3-fluoro-pyridine-2-carboxamide] | 0.0263 | 0.0209 | 0.0209 | 0.024 | 0.0182
4 | CC1(c2cc(-c3cncnc3)ccc2F)N=C(N)CC1C(F)(F)F (centres unmarked) [Compound 14] | – | > 10 | 8.32 | 8.91 | > 10
5 | COc1cnc(C(=O)Nc2ccc(F)c([C@]3(C)C[C@@H](C(F)(F)F)CC(N)=N3)c2)cn1 [Compound 9, N-{3-[(2S,4R)-6-amino-2-methyl-4-(trifluoromethyl)-4,5-dihydro-3H-pyridin-2-yl]-4-fluoro-phenyl]-5-methoxy-pyrazine-2-carboxamide] | 0.0389 | 0.0676 | 0.00589 | 0.00525 | 0.00759
6 | C[C@@]1(c2cccc(-c3cncnc3)c2)C[C@@H](C(F)(F)F)CC(N)=N1 [Compound 1, (4R,6S)-6-methyl-6-(3-pyrimidin-5-ylphenyl)-4-(trifluoromethyl)-3,4,5,6-tetrahydropyridin-2-amine] | 1.48 | – | 0.263 | 0.295 | 1.02
7 | C[C@@]1(c2cccc(-c3cncnc3)c2)C[C@H](C(F)(F)F)CC(N)=N1 [Compound 2, (4S,6S)-6-methyl-6-(3-pyrimidin-5-ylphenyl)-4-(trifluoromethyl)-3,4,5,6-tetrahydropyridin-2-amine] | 18.2 | > 10 | 3.98 | 4.27 | > 10
8 | CC1(c2cc(NC(=O)c3ccc(C#N)cn3)ccc2F)N=C(N)CC1C(F)(F)F (racemic) [Compound 18, (+)-N-[3-[(2S*,3R*)-5-amino-2-methyl-3-(trifluoromethyl)-3,4-dihydropyrrol-2-yl]-4-fluoro-phenyl]-5-cyano-pyridine-2-carboxamide] | – | 2.19 | 0.0646 | 0.0676 | 0.38
9 | COc1cnc(C(=O)Nc2ccc(F)c(C3(C)N=C(N)CC3C(F)(F)F)c2)cn1 (racemic) [Compound 17, (±)-N-[3-[(2S*,3R*)-5-amino-2-methyl-3-(trifluoromethyl)-3,4-dihydropyrrol-2-yl]-4-fluoro-phenyl]-5-methoxy-pyrazine-2-carboxamide] | – | > 10 | 0.178 | 0.17 | 0.871
10 | C[C@@]1(c2cccc(NC(=O)c3ccc(C#N)cn3)c2)C[C@@H](C(F)(F)F)CC(N)=N1 [Compound 7, N-[3-[(2S,4R)-6-amino-2-methyl-4-(trifluoromethyl)-4,5-dihydro-3H-pyridin-2-yl]phenyl]-5-cyano-pyridine-2-carboxamide] | 0.0324 | 0.132 | 0.024 | 0.024 | 0.0204
11 | C[C@]1(c2cc(NC(=O)c3ccc(Cl)cn3)ccc2F)N=C(N)C[C@H]1C(F)(F)F [Compound 19, N-[3-[(2S,3R)-5-amino-2-methyl-3-(trifluoromethyl)-3,4-dihydropyrrol-2-yl]-4-fluoro-phenyl]-5-chloro-pyridine-2-carboxamide] | – | 0.692 | 0.0813 | 0.0617 | 0.302
12 | C[C@@]1(c2cc(NC(=O)c3cnc(OCC(F)(F)F)cn3)ccc2F)N=C(N)C[C@@H]1C(F)(F)F [Compound 31, N-[3-[(2R,3S)-5-amino-2-methyl-3-(trifluoromethyl)-3,4-dihydropyrrol-2-yl]-4-fluoro-phenyl]-5-(2,2,2-trifluoroethoxy)pyrazine-2-carboxamide] | – | > 20 | – | 0.257 | 0.457
13 | C[C@@]1(c2cccc(NC(=O)c3ncc(Cl)cc3F)c2)C[C@H](C(F)(F)F)CC(N)=N1 [Compound 6, N-[3-[(2S,4S)-6-amino-2-methyl-4-(trifluoromethyl)-4,5-dihydro-3H-pyridin-2-yl]phenyl]-5-chloro-3-fluoro-pyridine-2-carboxamide] | 4.9 | 1.15 | 1.86 | 2 | 1.62
14 | C[C@@]1(c2cc(NC(=O)c3ccc(Cl)cn3)ccc2F)N=C(N)C[C@@H]1C(F)(F)F [Compound 20, N-[3-[(2R,3S)-5-amino-2-methyl-3-(trifluoromethyl)-3,4-dihydropyrrol-2-yl]-4-fluoro-phenyl]-5-chloro-pyridine-2-carboxamide] | – | > 10 | 8.32 | 8.91 | > 10

Source: patent US10106524B2, “2,3,4,5-tetrahydropyridin-6-amine and 3,4-dihydro-2H-pyrrol-5-amine compound inhibitors of beta-secretase” (Janssen Pharmaceutica NV, priority 2015, dated 2018)
